Test systems include A498 renal; CCRF-CEM leukemia; DU-145 prostate; HCC-2998 colon; HCT-116 colon; HL-60(TB) leukemia; HOP-62 NSCLC; M14 melanoma; MDA-MB-231 breast; MDA-MB-435; MDA-N; NCI-H460 lung; OVCAR-4 ovarian; SK-MEL-2 melanoma; SN12C renal; SNB-75 CNS; SW-620 colon; TK-10 renal; SK-OV-3 ovarian; MALME-3M melanoma.
What all share (experiment): DTP human tumour cell line panel, 48 h

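Results reflect a 48-hour exposure of cells in 96-well plates to compound at five concentrations. TGI is the concentration that stops growth completely.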

Consider `O=P(O)(O)CN1CCN(CP(=O)(O)O)CCN(CP(=O)(O)O)CCN(CP(=O)(O)O)CC1`, for which the TGI – broadly, the concentration giving total growth inhibition – in the assay with A498 renal is more than 100 µM; in the assay with CCRF-CEM leukemia it was more than 100 µM; in the assay on DU-145 prostate, more than 100 µM; with HCC-2998 colon, more than 100 µM; in the assay on HCT-116 colon, more than 100 µM; with HL-60(TB) leukemia it was 72.4 µM. The total growth inhibition concentration (TGI) with HOP-62 NSCLC, with M14 melanoma, in the assay on MDA-MB-231 breast, in the assay on MDA-MB-435, in the assay with MDA-N and with NCI-H460 lung was more than 100 µM each time. In addition, the TGI in the assay on OVCAR-4 ovarian, in the assay on SK-MEL-2 melanoma, in the assay with SN12C renal, in the assay with SNB-75 CNS, in the assay with SW-620 colon and with TK-10 renal was more than 100 µM throughout.
As for `CC(=O)O[C@@H]1C=C(C)[C@H](CBr)O[C@@]2(C)CC[C@H](Br)C(C)(C)[C@H]12`, the TGI in the assay on A498 renal, with CCRF-CEM leukemia, in the assay with DU-145 prostate, in the assay with HCC-2998 colon, with HCT-116 colon and with HL-60(TB) leukemia was more than 100 µM throughout. Besides, the TGI in the assay with HOP-62 NSCLC, with M14 melanoma, in the assay with MDA-MB-231 breast, in the assay on MDA-MB-435, in the assay on MDA-N and with NCI-H460 lung was more than 100 µM throughout. Moreover, the TGI in the assay with OVCAR-4 ovarian, with SK-MEL-2 melanoma, in the assay with SK-OV-3 ovarian, in the assay on SN12C renal, in the assay on SNB-75 CNS and with SW-620 colon was more than 100 µM throughout. Further, the TGI with TK-10 renal was more than 100 µM.
As for `O=C1NNC(=O)C2C3c4ccccc4C(c4ccccc43)C12` (stereo unspecified), the TGI with A498 renal, in the assay with CCRF-CEM leukemia, in the assay with DU-145 prostate, in the assay on HCC-2998 colon, in the assay with HCT-116 colon and in the assay with HL-60(TB) leukemia was more than 100 µM throughout. Moreover, the TGI with HOP-62 NSCLC, with M14 melanoma, with MALME-3M melanoma, with MDA-MB-231 breast, in the assay on MDA-N and with NCI-H460 lung was more than 100 µM in each case. The TGI in the assay on OVCAR-4 ovarian, in the assay with SK-OV-3 ovarian, in the assay with SN12C renal, in the assay with SNB-75 CNS, with SW-620 colon and with TK-10 renal was more than 100 µM each time.
For the molecule `COc1ccc2c(c1)OCc1c-2oc2ccccc2c1=O`, the TGI in the assay on A498 renal, in the assay on CCRF-CEM leukemia, in the assay with DU-145 prostate, with HCC-2998 colon, in the assay on HCT-116 colon and with HOP-62 NSCLC was more than 100 µM each time. For the same molecule, the TGI in the assay with M14 melanoma, in the assay on MALME-3M melanoma, with MDA-MB-231 breast, with MDA-MB-435, in the assay with MDA-N and in the assay with SK-MEL-2 melanoma was more than 100 µM in each case. In addition, the TGI in the assay on SK-OV-3 ovarian was more than 100 µM; in the assay with SN12C renal it was more than 100 µM; in the assay with SNB-75 CNS it was 92.4 µM; in the assay with TK-10 renal, more than 100 µM.
For `NS(=O)(=O)c1nnc(NC(=O)c2ccccc2)s1`, the TGI with A498 renal, in the assay on DU-145 prostate, in the assay on HCC-2998 colon, in the assay with HCT-116 colon, in the assay on HOP-62 NSCLC and in the assay with M14 melanoma was more than 100 µM throughout. Also, the TGI with MALME-3M melanoma, in the assay with MDA-MB-231 breast, in the assay with MDA-MB-435, with MDA-N, in the assay on NCI-H460 lung and in the assay with OVCAR-4 ovarian was more than 100 µM throughout. Also, the TGI in the assay on SK-MEL-2 melanoma, in the assay with SK-OV-3 ovarian, with SN12C renal, in the assay on SW-620 colon and with TK-10 renal was more than 100 µM throughout.
As to `CC1CN=C(Nc2ccc(S(N)(=O)=O)cc2)S1` (stereo unspecified), the TGI in the assay with A498 renal, with CCRF-CEM leukemia, in the assay on DU-145 prostate, in the assay with HCC-2998 colon, in the assay on HCT-116 colon and in the assay on HL-60(TB) leukemia was more than 100 µM in each case. Moreover, the TGI in the assay with HOP-62 NSCLC was more than 100 µM; with M14 melanoma, more than 100 µM; with MALME-3M melanoma, more than 100 µM; in the assay with MDA-MB-231 breast, more than 100 µM; in the assay on MDA-N it was more than 10 µM; with NCI-H460 lung, more than 100 µM. For the same molecule, the TGI with OVCAR-4 ovarian, in the assay on SK-MEL-2 melanoma, in the assay with SK-OV-3 ovarian, with SN12C renal, with SNB-75 CNS and in the assay on SW-620 colon was more than 100 µM throughout. Also, the TGI in the assay on TK-10 renal is more than 100 µM.
For `Cn1c(=O)c2c(nc(NCCCCl)n2CC(=O)NCCCCl)n(C)c1=O`, the TGI in the assay with A498 renal, in the assay with CCRF-CEM leukemia, with DU-145 prostate, with HCC-2998 colon, with HCT-116 colon and in the assay with HL-60(TB) leukemia was more than 100 µM throughout. The TGI with HOP-62 NSCLC, in the assay with M14 melanoma, with MDA-MB-231 breast, with MDA-MB-435, in the assay with MDA-N and in the assay on NCI-H460 lung was more than 100 µM in each case. For the same molecule, the TGI in the assay on OVCAR-4 ovarian, in the assay with SK-MEL-2 melanoma, in the assay with SK-OV-3 ovarian, in the assay with SN12C renal, in the assay with SNB-75 CNS and in the assay with SW-620 colon was more than 100 µM each time. The TGI in the assay on TK-10 renal was more than 100 µM.
